Measured values reported in ChEMBL document CHEMBL2163286, “1,2,3,4-tetrahydroquinoline-based selective human neuronal nitric oxide synthase (nNOS) inhibitors: lead optimization studies resulting in the identification of N-(1-(2-(methylamino)ethyl)-1,2,3,4-tetrahydroquinolin-6-yl)thiophene-2-carboximidamide as a preclinical development candidate” (J Med Chem, 2012).

Columns and labels:
Nitric oxide synthase 1 = Nitric oxide synthase 1 (Homo sapiens, UniProt P29475); assay: Inhibition of human nNOS expressed in Sf9 cells assessed as reduction in conversion of [3H]L-arginine to [3H]L-citrulline preincubated for 15 mins by radiometric method
Chain of Nitric oxide synthase 1 (P29475 whole entry): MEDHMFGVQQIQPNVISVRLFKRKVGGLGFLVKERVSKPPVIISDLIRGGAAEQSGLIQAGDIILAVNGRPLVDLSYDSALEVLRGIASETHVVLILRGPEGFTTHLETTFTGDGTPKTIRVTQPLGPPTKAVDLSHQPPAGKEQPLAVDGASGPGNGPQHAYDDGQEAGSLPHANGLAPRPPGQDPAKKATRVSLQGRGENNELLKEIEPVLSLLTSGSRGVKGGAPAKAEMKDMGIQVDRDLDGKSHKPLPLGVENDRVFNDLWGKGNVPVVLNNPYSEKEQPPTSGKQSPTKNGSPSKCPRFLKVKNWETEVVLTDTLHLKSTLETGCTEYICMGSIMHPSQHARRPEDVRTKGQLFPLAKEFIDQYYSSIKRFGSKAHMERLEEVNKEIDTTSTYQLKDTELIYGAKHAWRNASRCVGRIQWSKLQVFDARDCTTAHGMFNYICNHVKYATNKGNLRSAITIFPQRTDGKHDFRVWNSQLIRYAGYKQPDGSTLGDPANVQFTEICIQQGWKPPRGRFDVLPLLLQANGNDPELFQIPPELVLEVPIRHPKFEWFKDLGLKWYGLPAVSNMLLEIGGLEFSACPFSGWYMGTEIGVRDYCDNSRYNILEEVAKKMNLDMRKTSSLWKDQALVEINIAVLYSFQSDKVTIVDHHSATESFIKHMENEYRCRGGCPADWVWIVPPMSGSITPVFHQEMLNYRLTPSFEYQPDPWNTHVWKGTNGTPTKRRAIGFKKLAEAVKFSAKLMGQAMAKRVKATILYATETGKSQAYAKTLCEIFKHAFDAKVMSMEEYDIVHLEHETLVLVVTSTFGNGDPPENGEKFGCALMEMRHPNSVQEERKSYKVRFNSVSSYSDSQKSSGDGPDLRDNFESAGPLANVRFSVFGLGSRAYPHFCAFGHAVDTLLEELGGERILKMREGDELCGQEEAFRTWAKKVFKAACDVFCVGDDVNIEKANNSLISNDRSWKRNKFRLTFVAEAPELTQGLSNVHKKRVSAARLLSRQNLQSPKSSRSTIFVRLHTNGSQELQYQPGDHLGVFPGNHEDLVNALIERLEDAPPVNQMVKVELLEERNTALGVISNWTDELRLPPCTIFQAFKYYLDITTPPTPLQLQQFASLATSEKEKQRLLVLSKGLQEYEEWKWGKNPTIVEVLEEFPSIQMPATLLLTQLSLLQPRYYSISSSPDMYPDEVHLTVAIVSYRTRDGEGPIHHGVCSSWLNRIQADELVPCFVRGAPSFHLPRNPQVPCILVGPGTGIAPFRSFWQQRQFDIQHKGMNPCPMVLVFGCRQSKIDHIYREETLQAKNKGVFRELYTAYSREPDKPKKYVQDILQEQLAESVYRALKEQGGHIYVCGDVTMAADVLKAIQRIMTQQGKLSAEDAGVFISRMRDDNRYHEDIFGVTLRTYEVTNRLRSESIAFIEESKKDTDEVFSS

[1] = molecular target: Nitric oxide synthase, inducible (Homo sapiens, UniProt P35228); assay: Inhibition of human recombinant iNOS expressed in Sf9 cells assessed as reduction in conversion of [3H]L-arginine to [3H]L-citrulline preincubated for 15 mins by radiometric method
Chain of Nitric oxide synthase, inducible (P35228 whole entry): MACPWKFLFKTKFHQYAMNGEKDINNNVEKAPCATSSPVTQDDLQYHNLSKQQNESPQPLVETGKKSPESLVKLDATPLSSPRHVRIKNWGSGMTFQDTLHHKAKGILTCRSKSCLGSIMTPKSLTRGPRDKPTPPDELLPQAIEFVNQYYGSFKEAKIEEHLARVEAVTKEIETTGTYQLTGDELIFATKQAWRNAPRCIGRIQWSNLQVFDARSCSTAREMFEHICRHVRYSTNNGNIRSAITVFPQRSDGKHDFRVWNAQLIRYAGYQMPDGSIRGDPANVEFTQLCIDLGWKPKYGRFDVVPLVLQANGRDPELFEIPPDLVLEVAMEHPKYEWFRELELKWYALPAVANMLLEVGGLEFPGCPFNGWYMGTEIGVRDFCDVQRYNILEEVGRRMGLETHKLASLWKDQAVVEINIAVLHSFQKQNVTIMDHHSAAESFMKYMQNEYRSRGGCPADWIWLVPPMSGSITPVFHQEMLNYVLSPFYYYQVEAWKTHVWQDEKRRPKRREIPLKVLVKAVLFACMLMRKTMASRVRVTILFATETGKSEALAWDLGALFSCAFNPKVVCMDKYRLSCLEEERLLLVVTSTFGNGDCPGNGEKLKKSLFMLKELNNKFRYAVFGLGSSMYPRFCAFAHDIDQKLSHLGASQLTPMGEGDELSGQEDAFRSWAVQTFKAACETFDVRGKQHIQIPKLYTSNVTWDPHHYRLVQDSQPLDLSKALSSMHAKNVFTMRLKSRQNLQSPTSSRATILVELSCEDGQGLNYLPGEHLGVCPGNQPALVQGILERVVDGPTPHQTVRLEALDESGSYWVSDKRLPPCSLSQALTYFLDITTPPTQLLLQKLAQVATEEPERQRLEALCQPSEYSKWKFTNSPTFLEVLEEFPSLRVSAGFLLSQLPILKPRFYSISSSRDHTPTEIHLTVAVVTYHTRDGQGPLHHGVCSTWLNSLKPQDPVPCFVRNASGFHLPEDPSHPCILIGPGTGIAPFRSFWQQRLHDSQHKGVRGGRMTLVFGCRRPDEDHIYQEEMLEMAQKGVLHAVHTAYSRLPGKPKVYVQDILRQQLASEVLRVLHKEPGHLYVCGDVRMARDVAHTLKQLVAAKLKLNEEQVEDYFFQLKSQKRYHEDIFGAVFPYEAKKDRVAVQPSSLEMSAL

[2] = molecular target: Voltage-gated inwardly rectifying potassium channel KCNH2 (Homo sapiens, UniProt Q12809); assay: Inhibition of human ERG expressed in HEK293 cells at -80 mV holding potential assessed as reduction in tail current amplitude by conventional patch clamp assay; type: cell-based
Chain of Voltage-gated inwardly rectifying potassium channel KCNH2 (Q12809 whole entry): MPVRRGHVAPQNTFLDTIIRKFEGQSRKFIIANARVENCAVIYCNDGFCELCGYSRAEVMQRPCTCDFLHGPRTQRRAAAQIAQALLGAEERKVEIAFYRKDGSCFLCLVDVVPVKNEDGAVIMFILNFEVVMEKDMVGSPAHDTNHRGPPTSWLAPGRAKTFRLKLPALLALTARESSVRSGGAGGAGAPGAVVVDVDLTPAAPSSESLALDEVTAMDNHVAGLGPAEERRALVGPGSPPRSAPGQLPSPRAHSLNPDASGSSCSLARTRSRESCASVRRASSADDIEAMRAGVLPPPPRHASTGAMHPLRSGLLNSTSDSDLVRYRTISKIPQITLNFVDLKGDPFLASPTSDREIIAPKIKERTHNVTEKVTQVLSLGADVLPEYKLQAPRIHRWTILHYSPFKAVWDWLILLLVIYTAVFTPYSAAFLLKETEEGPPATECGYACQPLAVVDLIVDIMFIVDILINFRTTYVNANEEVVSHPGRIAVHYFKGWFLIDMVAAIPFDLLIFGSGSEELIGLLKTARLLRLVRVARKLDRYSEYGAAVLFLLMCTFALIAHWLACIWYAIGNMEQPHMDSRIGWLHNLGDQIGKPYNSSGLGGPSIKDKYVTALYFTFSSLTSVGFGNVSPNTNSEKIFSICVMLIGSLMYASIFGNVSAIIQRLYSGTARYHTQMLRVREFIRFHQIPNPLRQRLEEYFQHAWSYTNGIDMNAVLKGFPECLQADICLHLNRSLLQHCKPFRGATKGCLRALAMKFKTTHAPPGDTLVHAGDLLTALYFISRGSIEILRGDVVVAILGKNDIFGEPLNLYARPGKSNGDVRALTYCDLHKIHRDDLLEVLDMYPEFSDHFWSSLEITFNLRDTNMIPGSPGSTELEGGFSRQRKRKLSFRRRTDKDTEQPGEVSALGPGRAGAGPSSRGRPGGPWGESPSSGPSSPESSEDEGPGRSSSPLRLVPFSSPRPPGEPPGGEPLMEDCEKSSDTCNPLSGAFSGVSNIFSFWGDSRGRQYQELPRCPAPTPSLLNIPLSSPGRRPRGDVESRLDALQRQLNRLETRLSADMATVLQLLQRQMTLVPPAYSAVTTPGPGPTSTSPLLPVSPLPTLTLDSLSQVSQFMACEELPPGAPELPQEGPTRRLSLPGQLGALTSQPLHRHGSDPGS

Nitric oxide synthase 3 = molecular target: T1, Nitric oxide synthase 3 (Homo sapiens, UniProt P29474); assay: Inhibition of human eNOS expressed in Sf9 cells assessed as reduction in conversion of [3H]L-arginine to [3H]L-citrulline preincubated for 15 mins by radiometric method
T1 sequence (P29474 whole entry): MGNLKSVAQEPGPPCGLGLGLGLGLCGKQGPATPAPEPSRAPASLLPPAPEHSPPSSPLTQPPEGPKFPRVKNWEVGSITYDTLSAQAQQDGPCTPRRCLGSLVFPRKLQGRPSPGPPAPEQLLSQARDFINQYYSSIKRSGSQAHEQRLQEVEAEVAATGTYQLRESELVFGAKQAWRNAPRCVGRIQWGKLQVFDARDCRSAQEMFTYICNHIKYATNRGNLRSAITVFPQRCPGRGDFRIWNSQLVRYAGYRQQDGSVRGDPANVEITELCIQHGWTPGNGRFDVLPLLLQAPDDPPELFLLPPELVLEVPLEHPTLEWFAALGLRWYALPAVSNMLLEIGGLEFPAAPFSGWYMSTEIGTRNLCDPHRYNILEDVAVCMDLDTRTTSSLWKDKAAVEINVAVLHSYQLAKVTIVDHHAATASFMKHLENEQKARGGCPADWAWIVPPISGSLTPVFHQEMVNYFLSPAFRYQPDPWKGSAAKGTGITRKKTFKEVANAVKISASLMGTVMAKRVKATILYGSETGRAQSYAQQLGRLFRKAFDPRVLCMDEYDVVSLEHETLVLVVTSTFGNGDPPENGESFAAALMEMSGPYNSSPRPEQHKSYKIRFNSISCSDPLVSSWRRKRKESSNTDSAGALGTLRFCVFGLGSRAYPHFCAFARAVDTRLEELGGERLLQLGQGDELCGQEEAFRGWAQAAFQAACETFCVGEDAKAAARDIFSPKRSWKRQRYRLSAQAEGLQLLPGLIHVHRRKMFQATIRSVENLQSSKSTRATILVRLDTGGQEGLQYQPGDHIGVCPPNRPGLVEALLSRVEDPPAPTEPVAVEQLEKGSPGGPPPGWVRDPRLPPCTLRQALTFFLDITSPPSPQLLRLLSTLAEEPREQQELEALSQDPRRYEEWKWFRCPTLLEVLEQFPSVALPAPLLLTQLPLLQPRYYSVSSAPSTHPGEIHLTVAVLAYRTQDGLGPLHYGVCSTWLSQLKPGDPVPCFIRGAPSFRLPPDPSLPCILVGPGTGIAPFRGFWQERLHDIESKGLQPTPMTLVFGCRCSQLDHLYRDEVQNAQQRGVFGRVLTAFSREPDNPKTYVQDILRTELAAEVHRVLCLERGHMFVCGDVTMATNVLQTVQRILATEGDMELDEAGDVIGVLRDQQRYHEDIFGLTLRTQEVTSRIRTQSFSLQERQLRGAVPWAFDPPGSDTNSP

| IC50 (Nitric oxide synthase 1) [µM] | IC50 [1] [µM] | IC50 (Nitric oxide synthase 3) [µM] | Structure (SMILES) | IC50 [2] [µM] |
| --- | --- | --- | --- | --- |
| 0.115 | 73 | 32.9 | N=C(Nc1ccc2c(c1)CCCN2CCNCCO)c1cccs1 | > 30 |
| – | – | – | CN1CCC[C@H]1CCN1CCCc2cc(NC(=N)c3cccs3)ccc21 | 4.7 |
| 0.139 | > 100 | 46.5 | CCNCCN1CCCc2cc(NC(=N)c3cccs3)ccc21 | > 30 |
